Data reported in patent US20260256790A1, “DEBIO-0123 IN COMBINATION WITH TEMOZOLOMIDE AND RADIOTHERAPY FOR USE IN TREATING GLIOMA” (Debiopharm International S.A., priority 2023, published 2026).
Read-outs that look alike come from different tables or passages of the source.

What was measured:
U87-MG-luc GBM cell line = assay: U87-MG-luc tumors implanted subcutaneously in mice, monotherapy; format: in vivo; conditions: for Tumor volume vs vehicle controls at end of treatment: subcutaneous, 28 days
Procedure: Male athymic nude mice were injected A) subcutaneously (s.c.) or B) cerebrally (i.e.) with 1×10^5 U87-MG-luc cells in Matrigel. Animals implanted i.e. were imaged to monitor tumor establishment and growth throughout the study using an In Vivo Imaging System (IVIS) once weekly, detecting tumor bioluminescence (BLI) in photons. For animals implanted s.c., tumor growth was monitored twice weekly by caliper measurement and tumor volume calculated using the equation V=(L×W×W)/2, where V is tumor volume, L is tumor length (the longest tumor dimension) and W is tumor width (the longest tumor dimension perpendicular to L). Upon confirmation of tumor establishment, animals were randomly allocated into 3 (A, s.c.) or 2 (B, i.e.) treatment groups (n=8 animals per group) consisting of vehicle (0.5% methycellulose, 1% Tween 80 P.O. and saline I.V.) or Compound of formula (I) [CoF (I)] formulated as a suspension in 0.5% methycellulose and 1% Tween 80. The treatments were administered over a 28 day cycle and compound of formula (I) was administered orally at a dose of either 30 mg/kg (for both A and B) or 60 mg/kg (for A only), once daily (QD)). During routine monitoring, the animals were checked for any effects of tumor growth and treatments on behavior such as mobility, food and water consumption, body weight gain/loss 3 times a week, eye/hair matting and any other abnormalities. Mortality and observed clinical signs were recorded for individual animals in detail.

in vivo = assay: in vivo; design: species or system cynomolgus monkeys; conditions: female, cynomolgus monkey, po
Procedure: Compound of formula (I) was orally given to 3 female cynomolgus monkeys by gavage once a day for 91 days. The volume of administration was 5 mL/kg, and the vehicle was an aqueous solution of 0.5% (w/v) methylcellulose (cps 400) and 1% (w/v) Tween 80. The Compound of formula (I) dose was 10 mg/kg; this dose level was assessed in this study to be the […] no adverse effect level (NOAEL) based on general toxicology evaluation. The animals were necropsied 24 hours after the last dose after an overnight period without food. A sample from brain tissue (left forebrain) was collected from each animal, snap frozen in liquid nitrogen. and stored frozen at <−50° C. Blood samples were taken from the femoral vein into tubes containing K2EDTA, fully inverted approximately 10 times, and placed on crushed wet ice until centrifugation at 2300 g for 10 minutes at approximately 4° C. The resultant plasma was separated, transferred into polypropylene tubes, and frozen at <−50° C. Tissue and plasma samples were transported frozen on dry ice to the respective sites of analysis.

[1] = Plasma and brain concentrations (PK) in healthy mice after oral dosing; format: in vivo, Nu/Nu mice; conditions: 30 mg/kg, oral; for Kp / Cmax / AUC(0-inf) / AUC(0-t): male, Nu/Nu, mouse, po; for Kp: brain/plasma; for Cmax / AUC(0-inf) / AUC(0-t): plasma; for AUC(0-inf): read-out: AUCInf, plasma; for AUC(0-t): read-out: AUCLast, plasma
Procedure: Healthy male Nu/Nu mice were treated orally with either (i) a single dose of 30 mg/kg Compound of formula (I) ([…], 3 mice per time-point), (ii) 30 mg/kg of Compound of formula (I) given once a day for four consecutive days (27 mice in total, 3 mice per time-point), (iii) 30 mg/kg of AZD-1775 (adavosertib, purchased from Combi-Blocks, San Diego, USA) given twice a day for three consecutive days and once on day four (27 mice in total, 3 mice per time-point), (iv) or 80 mg/kg of Zn-c3 (purchased from EOS Med Chem, Jina City, China) given once a day for four consecutive days (27 mice in total, 3 mice per time-point). The doses used for each compound have previously been reported as active dose levels. Compound of formula (I) was formulated as a suspension in 0.5% methylcellulose with 1% Tween 80 and administered at a concentration of 3.0 mg/mL. […] The dosing volume of all formulations was 10 mL/kg. At designated time-points the mice were euthanized by carbon dioxide inhalation, blood samples were collected by cardiac puncture into K2EDTA containing tubes. The tubes were inverted several times, placed on ice and centrifuged within 30 min of collection (4° C. for 5 min at 6000 rpm) to obtain plasma. The plasma samples were snap frozen in dry ice and stored at −80° C. until analysis. The brain was collected, weighed and snap frozen in dry ice until further analysis. To obtain brain homogenates, firstly water was added to each brain (brain weight:water volume=1:4) then the brain was homogenized with a H-speed dispersator (time procedure: homogenizing for 10 s and interval of 10 s per time, total 3-5 times; cleaning procedure for dispersator: Water-Methanol-Ethanol-Water, 10 s each). The brain homogenate samples were transferred to individual tubes and stored at −80° C. prior to analysis. The mouse plasma and brain samples were analysed as follows. For each analytical batch of plasma and brain samples, the standard and quality control (QC) samples were freshly prepared in blank male Nu/Nu mouse plasma (with K2EDTA anticoagulant) and brain homogenate. To an aliquot of each standard, QC, control blank and study samples, internal standard (^13CD6-Compound of formula (I) for Compound of formula (I), terfenadine for AZD-1775 and Zn-c3) in methanol/acetonitrile (1:1, v/v) was added. The samples were mixed for 1 minute and centrifuged at 4000 rpm at 4° C. for 15 minutes. Supernatants were transferred and diluted in MeOH/water (1:1, v/v, with 0.1% FA) prior to LC-MS/MS injection. Chromatographic separation was achieved on an Shimadzu LC-20AD using a Kinetex 2.6μ C18 100A column (50 mm*3.00 mm) for Compound of formula (I) and AZD-1775 samples and a ACE 5 C4 column (50 mm*2.1 mm) for Zn-c3 samples with gradient elution using the following conditions: flow rate: 0.7 mL/min; run time: 3.0 min; mobile phase: A: 5 mM NH4OAc (0.1% FA), B: Acetonitrile (0.1% FA). Detection was accomplished with an AB Sciex 5500 utilizing electrospray MS/MS in positive ion multiple reaction monitoring mode (MRM). The MRM channels were 511.29/98 for Compound of formula (I), 501.47/442.20 for AZD-1775 and 527.36/468.10 for Zn-c3. The MRM channels of internal standard were 518.17/102.10 (^13CD6-Compound of formula (I)) for Compound of formula (I), 472.40/436.40 (terfenadine) for AZD-1775 and Zn-c3. The measured plasma and brain concentrations at each time-point, the nominal sample collection time, and intended dosages were used for pharmacokinetic analysis. The PK parameters of all study compounds were determined by non-compartmental analysis using WinNonlin Version 8.0 (Pharsight).

With Cc1cc(Nc2ncc3c(n2)N(C)CN(c2c(Cl)cccc2Cl)C3=O)ccc1C1CCN(C)CC1 [Compound of formula (I)] as the compound, how does the “Body weight loss / tolerability” value (U87-MG-luc GBM cell line; all dose levels (30 or 60 mg/kg QD, 28 days), s.c. and cerebral models) read?
The value was “No significant body weight loss”.

And the “Tumor volume vs vehicle controls at end of treatment” value (U87-MG-luc GBM cell line; 30 mg/kg oral QD, p=0.0009 on day 28)?
Its value is “significantly smaller tumors than vehicle controls”.

What about the “Tumor volume vs vehicle controls at end of treatment” value (U87-MG-luc GBM cell line; 60 mg/kg oral QD, p<0.0001 on day 28) of the same compound?
The value was “significantly smaller tumors than vehicle controls”.

What about the NOAEL at 91 days (in vivo) of the same compound?
Its NOAEL at 91 days is 10 mg/kg.

What about the “AUCInf, brain” value ([1]; qd for four days, day 4) of the same compound?
The value was 31763 ng·h/g.

What about the “AUCLast, brain” value ([1]; qd for four days, day 4) of the same compound?
Its value is 31610 ng·h/g.

What about the “Cmax, brain” value ([1]; qd for four days, day 4) of the same compound?
The value was 1963 ng/g.

What about the “AUCInf, brain” value ([1]; single dose, day 1) of the same compound?
The value was 37471 ng·h/g.

And the “AUCLast, brain” value ([1]; single dose, day 1)?
Its value is 37368 ng·h/g.

And the “Cmax, brain” value ([1]; single dose, day 1)?
Its value is 3557 ng/g.

What about the Kp ([1]; qd for four days, day 4, read-out: Brain to plasma ratio based on AUCInf) of the same compound?
Its Kp is 0.489.

What about the Kp ([1]; qd for four days, day 4, read-out: Brain to plasma ratio based on AUCLast) of the same compound?
The Kp was 0.488.

What about the Kp ([1]; qd for four days, day 4, read-out: Brain to plasma ratio based on Cmax) of the same compound?
The Kp was 0.498.

What about the Kp ([1]; single dose, day 1, read-out: Brain to plasma ratio based on AUCInf) of the same compound?
Its Kp is 0.44.

What about the Kp ([1]; single dose, day 1, read-out: Brain to plasma ratio based on AUCLast) of the same compound?
The Kp was 0.439.

And the Kp ([1]; single dose, day 1, read-out: Brain to plasma ratio based on Cmax)?
Its Kp is 0.505.

And the Cmax ([1]; qd for four days, day 4)?
The Cmax was 3940 ng/mL.

And the AUC(0-inf) ([1]; qd for four days, day 4)?
The AUC(0-inf) was 65000 ng·h/mL.

What about the AUC(0-t) ([1]; qd for four days, day 4) of the same compound?
The AUC(0-t) was 64800 ng·h/mL.

What about the Cmax ([1]; single dose, day 1) of the same compound?
The Cmax was 7040 ng/mL.

What about the AUC(0-inf) ([1]; single dose, day 1) of the same compound?
Its AUC(0-inf) is 85200 ng·h/mL.

What about the AUC(0-t) ([1]; single dose, day 1) of the same compound?
The AUC(0-t) was 85100 ng·h/mL.
